This is an account of results in patent US9061984B2 (University of Louisville Research Foundation, Inc., priority 2008, dated 2015).

Converted amounts (≈) assume the structure as drawn. Read-outs that look alike come from different tables or passages of the source.

In data set [1] the test system is peritoneal macrophages. As to the kind of experiment: Toxicity to peritoneal macrophages (Trypan Blue count). The data set is classed as cell-based, BALB/C mouse. Particulars: Mus musculus, Peritoneal macrophage, 48 h; Table 7; read-out: IC50 Macrophage.
In data set [2] the test system is axenic amastigotes of L. amazonensis (strain MHOM/BR/76/LTB-012). Nature of the data set: microbe, parasite or virus in culture. Conditions: Leishmania amazonensis.
The subject of data set [3] is L. amazonensis Lma CL1. Nature of the data set: Activity against macrophages infected with Leishmania amastigotes. Particulars: Leishmania amazonensis, Macrophage, 48 h, read-out: IC50 L. amazonensis Lma CL1.
Description: (§2) A cloned line of Leishmania amazonensis(strain MHOM/BR/76/LTB-012) was used in all experiments. Axenically grown amastigote forms of L. amazonensis were maintained by weekly subpassages in MAA/20 medium (Sereno and Lemesre, Antimicrobial Agents and Chemotherapy 41, 972-976 (1997)) at 32±1° C. in 25 cm^2 tissue culture flasks. L. peruviana (strain MHOM/PE/LCA08) and L. braziliensis (strainMHOM/PE/PER006) were maintained in the promastigote stage in a biphasic medium (blood agar with 0.89% NaCl, pH 7.4) at 24° C., with sub-passage every 3 to 4 days. Promastigotes (5×10^6 parasites) were then transferred to 25 cm2 tissue culture flasks containing 5 ml of M199 medium supplemented with 10% foetal bovine serum (FBS), pH 7.4. After 4 days, exponential phase promastigotes were centrifuged for 10 minutes at 1500 g and 4° C. The supernatant was discarded and replaced by fresh M199 medium supplemented with 20% FBS, pH 5.5. Axenic amastigotes transformation was then induced by increasing the temperature to 34° C. and incubating for 96 h (Teixeira et al., Parasitology Research 88, 963-968 (2002)).
(§3) Extracted cells were immediately deposited on sterile 4×4 mm cover glasses and placed in each well of a 96-well plate. Plates were incubated for 24 h at 37° C., 5% CO2 to allow cell adhesion (Castillo et al, Journal of Ethnopharmacology 112, 410-414 (2007)). Pre-warmed complete M199 medium was used twice to remove non-adherent cells. A neutral red method (Fautz et al., Mutation Research 253, 173-179 (1991)) was employed to determine cell concentration. Approximately 7×10^4 viable cells were deposited in each well for adhesion.
(§4) Infection of macrophages by amastigotes was determined as follows. […] Twelve hours after infection, a solution of the compounds to be tested was added to the cultures at various concentrations and maintained at 37° C. in 5% CO2 for a further forty-eight hours more. The plates were fixed with methanol and stained with 10% Giemsa stain. The percentage of infected macrophages was determined microscopically at 100 times magnification. The number of intracellular amastigotes was determined in 300 cells. Following Delorenzi et al. Antimicrobial Agents and Chemotherapy, 45, 1349-1354 (2001)) the percentage of infection rate (% IR) of each culture was calculated as follows: % IR=100−(infection rate of the treated culture/infection rate of the untreated culture)×100.
(§5) All experiments were performed in triplicate. ANOVA was used to test for statistical significance of differences (Epi-Info, Statview student program). The total parasite burden was calculated as a mean number of amastigotes per cells multiplied by the number of infected macrophages.
Data set [4] concerns L. braziliensis PER006. The description is as above. Particulars: Leishmania braziliensis, Macrophage, read-out: IC50 L. braziliensis PER006.
Description: as §2, §3, §4, §5
Data set [5] concerns L. peruviana LCA08. The description is as above. Conditions: Leishmania peruviana, Macrophage, read-out: IC50 L. peruviana LCA08.
Description: as §2, §3, §4, §5
Data set [6] deals with L. amazonensis. Conditions: for Lesion diameter / Reduction of parasite burden After 4 weeks / Reduction of parasite burden After 7 weeks / Mean lesion size (mm) / Mean parasite quantification (per 10^6) in lesion per mg (±SD) / Mean lesion wt (mg) (±SD) / % Variation of lesion wt / % reduction of parasite burden in the lesion: compounds 5 mg/kg/day, intralesional; for Lesion diameter / Reduction of parasite burden After 4 weeks / Reduction of parasite burden After 7 weeks: Glucantime 33 mg/kg/day; for Mean lesion size (mm) / Mean parasite quantification (per 10^6) in lesion per mg (±SD) / Mean lesion wt (mg) (±SD) / % Variation of lesion wt / % reduction of parasite burden in the lesion: Glucantime 33 mg Sb(v)/kg/day; for Mean lesion wt (mg) (±SD): BALB/c mice n=10; for % Variation of lesion wt / % reduction of parasite burden in the lesion: vs control.

The test system of data set [7] is 3T3 cells. Nature of the data set: Cell growth inhibition bioassay (sulforhodamine B). Particulars: Mus musculus, NIH3T3; 48 h, SRB; read-out: GI50 in indicated cell line: 3T3. The data set is classed as cell-based, mouse. In outline: (§1)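 Cells were exposed to compound alongside matched solvent controls, then stained with sulforhodamine B. Percent growth inhibition was calculated from dye absorbance against the control.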

Data set [8] relates to DU145 cells. Nature of the data set: Cell growth inhibition bioassay (sulforhodamine B). The data set is classed as cell-based, human. Particulars: Homo sapiens, DU-145; 48 h, SRB; read-out: GI50 in indicated cell line: DU145. In short, it runs like this: as §1
The test system of data set [9] is H460 cells. Nature of the data set: Cell growth inhibition bioassay (sulforhodamine B). It counts as cell-based, human. Particulars: Homo sapiens, NCI-H460; 48 h, SRB; read-out: GI50 in indicated cell line: H460. In short, it runs like this:
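Growth inhibition was measured colorimetrically with sulforhodamine B staining and expressed as percent inhibition relative to solvent-treated controls. Cell lines were human: MCF-7 breast adenocarcinoma, DU145 and PC3 prostate carcinoma/adenocarcinoma, H460 large cell lung cancer.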

In data set [10] the test system is HT-29 cells. As to the kind of experiment: Cell growth inhibition bioassay (sulforhodamine B). Particulars: Homo sapiens, HT-29; 48 h, SRB; read-out: GI50 in indicated cell line: HT-29. The data set is classed as cell-based, human. In outline:
as §1

In data set [11] the test system is K562 cells. As to the kind of experiment: Cell growth inhibition bioassay (sulforhodamine B). The data set is classed as cell-based, human. Conditions: Homo sapiens, K562; 48 h, SRB; read-out: GI50 in indicated cell line: K562. In outline: as §1
Data set [12] has as its system M-14 cells. As to the kind of experiment: Cell growth inhibition bioassay (sulforhodamine B). The data set is classed as cell-based, human. Particulars: Homo sapiens, M14; 48 h, SRB; read-out: GI50 in indicated cell line: M-14. In short, it runs like this: as §1
For data set [13], the system named is MCF-7 cells. Nature of the data set: Cell growth inhibition bioassay (sulforhodamine B). Particulars: Homo sapiens, MCF7; 48 h, SRB; read-out: GI50 in indicated cell line: MCF-7. It counts as cell-based, human. In short, it runs like this:
as §1

For data set [14], the system named is VERO cells. As to the kind of experiment: Cell growth inhibition bioassay (sulforhodamine B). The data set is classed as cell-based, African Green Monkey. Particulars: Chlorocebus sabaeus, Vero; 48 h, SRB; read-out: GI50 in indicated cell line: VERO. In outline:
as §1

In data set [15] the test system is Trypanosoma cruzi (Tulahuen C4). As to the kind of experiment: In vitro anti-T. cruzi activity (β-galactosidase CPRG colorimetric assay in VERO monolayer). The data set is classed as cell-based. Conditions: for IC50: Trypanosoma cruzi, TULAHUEN, Vero.
Data set [16] relates to M. tuberculosis H37Rv. As to the kind of experiment: Conventional aerobic (MABA) culture assay, luminescence MIC. The data set is classed as cell-based, Mycobacterium tuberculosis.
The nature of data set [17]: Toxicity to peritoneal macrophages (Trypan Blue count). The data set is classed as cell-based, BALB/C mouse. Particulars: BALB/C, mouse, Cytotoxicity Macrophages IC50.
For data set [18], the system named is axenic amastigotes of L. amazonensis (strain MHOM/BR/76/LTB-012). Particulars: Table 8b.
A short description of data set [19]: Cytotoxicity VERO cell (Table 6). Particulars: African green monkey, VERO cells.
The nature of data set [20]: Cytotoxicity on VERO cells (MTT), anti-T. cruzi study. Conditions: African green monkey, VERO cells, Cytotoxicity VERO Lab B, Lab B.
Where [21] appears, read: 72 h, read-out: IC50 L. amazonensis.

In general, IC50 refers to the point on the concentration scale where inhibition reaches its midpoint. Take `COc1ccc(/C=C/C(=O)c2c(O)cc(O)cc2OC)c(OC)c1` [Compound I-36, (2E)-1-(2,4-Dihydroxy-6-methoxyphenyl)-3-(2,4-dimethoxyphenyl)-2-propen-1-one]: the 50% inhibitory concentration (IC50) is over 300 µM in [1]; 6.4 µM in data set [2] (setting [21]); 28.5 µM in data set [3]; 237 µM in [4] (48 h); 290 µM in data set [5] (48 h).

In the case of `C=CCOc1cc(/C=C/C(=O)c2c(O)cc(O)cc2OC)cc(OCC=C)c1Br` [Compound I-42, (2E)-3-(3,5-Bis(2-propenyloxy)-4-bromophenyl)-1-(2,4-dihydroxy-6-methoxyphenyl)-2-propen-1-one], the concentration for half-maximal inhibition (IC50) was determined as 11.5 µM in data set [1], 1.1 µM in data set [2] (setting [21]), 4.1 µM in [3] and 14.4 µM in data set [4] (48 h). Also, in [6] (5 mg/kg/day intralesional, after 6 weeks treatment (footnote d)), the “Reduction of parasite burden (column After 7 weeks, analyzed after 6 weeks treatment)” value is 8^d %. The Lesion diameter in data set [6] is listed as 4.6 mm. The “Reduction of parasite burden After 4 weeks” value in [6] amounted to 9%.

`COc1cc(O)cc(O)c1C(=O)/C=C/c1ccco1` [Compound I-43, (2E)-1-(2,4-Dihydroxy-6-methoxyphenyl)-3-(2-furanyl)-2-propen-1-one]: the half-maximal inhibitory concentration (IC50) in [1] amounted to 384 µM; in [2] (setting [21]) it was 4.6 µM; in [3], 17 µM; in data set [4] (48 h) it was 30.4 µM; in [5] (48 h), 34.2 µM.

As for `COCOc1cc(OC)c(C(=O)/C=C/c2ccc(OC)cc2)c(OCOC)c1` [Compound I-44], the half-inhibitory concentration (IC50) in [1] is over 250 µM; in [2] (setting [21]) it was 1.3 µM; in data set [3] it was 12.1 µM; in data set [4] (48 h), 5.15 µM; in data set [5] (48 h) it was 111 µM. In [6], the Lesion diameter was 4.7 mm. Besides, the “Reduction of parasite burden After 4 weeks” value in data set [6] is on record as 11%. The “Reduction of parasite burden After 7 weeks” value in data set [6] worked out at 17%.

As to `COCOc1cc(OC)c(C(=O)/C=C/c2ccc3c(c2)OCO3)c(OCOC)c1` [Compound I-45], the 50% inhibitory concentration (IC50) worked out at 143 µM in data set [1]; 11.7 µM in [2] (setting [21]); 23.9 µM in data set [3]; 17.2 µM in data set [4] (48 h); 34.8 µM in data set [5] (48 h). The cutaneous toxicity result in [6] (at the tested doses (5 mg/kg/day intralesional)) is recorded as “did not exhibit any cutaneous toxicity”. Besides, the Lesion diameter in [6] was determined as 4.6 mm. In addition, in [6], the “Reduction of parasite burden After 4 weeks” value is recorded as 92%. The “Reduction of parasite burden After 7 weeks” value in data set [6] is 35%.

Usually GI50 stands for the concentration at which growth is held to half of that of the control. For orientation: MIC means the least concentration at which growth counts as inhibited. A lower MIC goes with a more susceptible organism. On to `CCC(CC)=NNc1ncnc2sc3c(c12)CCCC3` [II-48], for which the GI50 in data set [7] amounted to 1.4 µg/mL (≈ 4.85 µM); in data set [8] it was 4.3 µg/mL (≈ 14.9 µM); in [9], 4.4 µg/mL (≈ 15.3 µM); in data set [10], 11.2 µg/mL (≈ 38.8 µM); in data set [11], 3.3 µg/mL (≈ 11.4 µM); in data set [12] it was 5.9 µg/mL (≈ 20.5 µM). Moreover, the concentration for 50% growth inhibition (GI50) turned out to be 4.4 µg/mL (≈ 15.3 µM) in data set [13] and 7.4 µg/mL (≈ 25.7 µM) in data set [14]. Besides, the “Selectivity Index Lab B” value in [15] (IC50, VERO/IC50, T. cruzi, Lab B) stood at 1.0. For the same compound, the IC50 in [15] (Lab A, read-out: T. cruzi IC50 Lab A) was 4.8 µg/mL (≈ 16.6 µM); in data set [15] (Lab B, read-out: T. cruzi IC50 Lab B), 6 µg/mL (≈ 20.8 µM); in data set [19] it was 32.9 µg/mL (≈ 114 µM); in data set [2] (read-out: L. amazonensis IC50) it was 5.5 µM; in data set [20], 6 µg/mL (≈ 20.8 µM); in [4], 3.2 µg/mL. Further, the IC50 in data set [5] was found to be 2 µg/mL. The compound also had a minimum inhibitory concentration (MIC) in [16] (Mycobacterium tuberculosis, 168 h, aerobic, 7 days, H37Rv) of 46.2 µg/mL (≈ 160 µM). Besides, in [16] (VERO vs MABA MIC), the “Selectivity Index H37Rv” value amounted to 0.7. In data set [17], this compound returned a half-inhibitory concentration (IC50) at 48 h of 46.7 µM. Besides, in [18], the “Selectivity Index” value is 8.5. Besides, the “Mean lesion size (mm)” value in data set [6] (after 4 weeks treatment) came to 2.8 mm; in [6] (after 7 weeks treatment), 4.9 mm. The “Mean parasite quantification (per 10^6) in lesion per mg (±SD)” value is given as 0.60 (±0.44) amastigotes (×10^6)/mg in [6] (after 4 weeks treatment) and 1.53 (±0.18) amastigotes (×10^6)/mg in data set [6] (after 7 weeks treatment). For the same compound, the “Mean lesion wt (mg) (±SD)” value in [6] (after 4 weeks treatment) was 38.2 (±11.4) mg; in data set [6] (after 7 weeks treatment), 85.0 (±4.5) mg. Moreover, the “% Variation of lesion wt” value in data set [6] (after 4 weeks treatment) stood at 37%; in [6] (after 7 weeks treatment) it was 5%. In addition, the “% reduction of parasite burden in the lesion” value in data set [6] (after 4 weeks treatment) is reported as 65%; in [6] (after 7 weeks treatment), 17%.
